Results on three molecules are retold here after patent US11958859B2, “Use of pyridoxal acetal salts as water-triggered pro-fragrances” (Florida Gulf Coast University Board of Trustees, priority 2018, dated 2024).

Broadly, the melting point is the temperature, or range, at which the solid turns liquid.

Data set [1] can be described thus: Hydrolysis (acetal cleavage) of pyridoxal acetal salts in D2O/DMSO-d6, release of the alcohol monitored by time-dependent 1H NMR. In kind it is physicochemical. As to conditions: for release of alcohol from the respective pyridoxal acetal: 0.2 M, 30% D2O in DMSO-d6, after 22 hours. The procedure: The hydrolysis of the target alcohol from the pyridoxal acetal salt in the presence of D2O was monitored by ^1H NMR spectroscopy. This was accomplished by comparing the formation of hemiacetal C—H peak to the loss of the acetal C—H peak. For substrate 3a, the integration of the acetal C—H peak at 6.58 ppm was compared to the integration of the pyridoxal hemiacetal C—H peak at 6.41 ppm hourly to determine conversion. A stack plot of the NMR spectra for 50% D2O solution in DMSO-d6 over 20 hours is illustrated in FIG. 2.
To determine the kinetics of the hydrolysis with respect to the concentration of water, acetal 3a was exposed to varying concentrations of D2O The release of ethanol from 3a was measured at concentrations of 25%, 35%, 50%, and 100% D2O in DMSO-d6 and is plotted in FIG. 3. […] The 100% D2O trial provides full cleavage after 10 hours whereas a lowest concentration of D2O (25%) provides the slowest release at only 28% cleaved after 25 hours. The 50% D2O trial provided 74% release after 25 hours and the 35% D2O trial provided 42% release.
The rate of release for ethanol (blue), isopropanol (red), 2-phenylethanol (green), and geraniol (purple) were monitored at a 0.2 M concentration of 30% D2O in DMSO-d6 from the respective pyridoxal acetal. […] In all cases, the acetals hydrolyze to release the target molecule and pyridoxal HCl quantitatively. Since other fragrance delivery systems can lose material in side reactions (H. Q. N. Gunaratne et al., Chem. Commun., 2015, 51, 4455), the high fidelity in the release for these alcohols is significant.
The acetal cleavage was measured by comparing the integration of Ha to Hb whereas Hb/(Ha+Hb) provides the percent completion for the acetal cleavage for 3a and 3b. The stack plots in FIGS. 7-11 provide a visual counterpart to the graphs. 3c had some overlap between Ha and Hb so the fully separated methyl groups of the isopropyl were integrated instead.
3a (0.1636 mmol) was dissolved in 0.4 mL of DMSO-d6 (except for 100% D2O) and varying amounts of D2O were added, as shown in the table below (see corresponding stack plots in FIGS. 7-11).

Take `Cc1ncc2c(c1O)C(OC(C)C)OC2.Cl` (stereo not shown) [3c, 7-hydroxy-1-isopropoxy-6-methyl-1,3-dihydrofuro[3,4-c]pyridin-5-ium chloride]: the melting point was in the range of 116 to 121 °C. Moreover, in data set [1], the “release of alcohol from the respective pyridoxal acetal” value came to 37%.
On to `Cc1ncc2c(c1O)C(OCCc1ccccc1)OC2.Cl` (stereo not shown), for which the melting point lay in the range of 168 to 172 °C.
Consider `CCOC1OCc2cnc(C)c(O)c21.Cl` (stereo not shown) [3a, 1-ethoxy-7-hydroxy-6-methyl-1,3-dihydrofuro[3,4-c]pyridin-5-ium chloride], for which the melting point was 97 to 103 °C. For the same molecule, the “release of alcohol from the respective pyridoxal acetal” value in data set [1] worked out at 35%. For the same molecule, in data set [1] (25% D2O in DMSO-d6, after 25 hours), the “acetal cleaved (release of ethanol)” value stood at 28%. Moreover, in data set [1] (25%, 35%, 50%, 100% D2O in DMSO-d6, FIG. 3), the “dependence of release rate on water concentration” value is given as “rate increases with higher concentrations of D2O”. Moreover, the release of ethanol in data set [1] (35% D2O in DMSO-d6 (time not restated; 25 hours implied)) came to 42%. Besides, the release of ethanol in data set [1] (50% D2O in DMSO-d6, after 25 hours) was 74%. The “cleavage of acetal (release of ethanol)” value in data set [1] (100% D2O, after 10 hours, 1H NMR) is recorded as “full cleavage”.
